{
  "source": "patent US6673937B2",
  "about": "“Syntheses and methods of use of new antimitotic agents” (The University of Pittsburgh, priority 2000, dated 2004)",
  "key": {"[1]": {"test_system": "fungi", "details": "cited from earlier work"}, "[2]": {"test_system": "Cdk1", "assay": "Western blotting for Cdk1 phosphorylation status in tsFT210 cells", "format": "cell-based, mouse", "details": "6 hours", "method": "tsFT210 cells were harvested using the same procedure for cell synchronizing and drug exposure as described above for the G2/M flow cytometric analysis. The protein lysates were analyzed by Western blotting for Cdk1 as described previously (Tamura K, Southwick EC, Kerns J, Rosi K, Carr BI, Wilcox C and Lazo JS (2000) Cdc25 inhibition and cell cycle arrest by a synthetic thioalkyl vitamin K analogue. Cancer Res 60:1317-1325.). The inventors used Cdk1 isolated from human MCF-7 cells to assay for in vitro inhibition of enzyme activity because of available antibodies and convenience. Asynchronous cells grown at 37° C. in 5% CO2 in DMEM containing 10% fetal bovine serum were treated with lysis buffer and harvested as previously described (Vogt A, Wang AS, Johnson CS, Fabisiak JP, Wipf P and Lazo JS (2000) In vivo antitumor activity and induction of insulin-like growth factor-1 resistant apoptosis by SC-ααδ9. J Pharmacol Exptl Therap 292:530-537.). Cdk1 kinase activity assay was performed as previously described (Yu L, Orlandi L, Wang P, Orr MS, Senderowicz AM, Sausville EA, Silvestrini R, Watanabe N, Piwnica-Worms H, O° Connor PM (1998) UCN-01 arogates G2 arrest through a Cdc2-dependent pathway that is associated with inactivation of the WeelHu kinase and activation of the Cdc25C phosphatase. J Biol Chem 273: 33455-33464.). […] Histone H1 was separated from other proteins by SDS-PAGE and analyzed for incorporation of radioactive phosphate with a Molecular Dynamics STORM 860 Phospholmager (Sunnyvale, CA).\nThe major controlling molecule for G2/M transition is the cyclin dependent kinase, Cdk1, whose cellular activity is tightly regulated by phosphorylation (Pines J (1999) Four-dimensional control of the cell cycle. Nature Cell Biol 1:E73-79., Hunter T and Pines J (1994) Cyclins and cancer II: cyclin D and CDK inhibitors come of age. Cell 79:573-582). […] The protein lysates were analyzed by Western blotting for Cdk1 content and phosphorylation status as described elsewhere herein. […]"}, "[3]": {"test_system": "tsFT210 cells", "assay": "Flow cytometry, G1 transition in tsFT210 cells", "format": "cell-based, mouse", "details": "100 μM, additional 6 hours"}, "[4]": {"test_system": "tsFT210 cells", "assay": "Flow cytometry, G2/M arrest in tsFT210 cells", "format": "cell-based, mouse", "details": "6 hours", "method": "Oncogene 18:6989-6996, Th′ng JP, Wright PS, Hamaguchi J, Lee MG, Norbury CJ, Nurse P and Bradbury EM (1990) The FT210 cell line is a mouse G2 phase mutant with a temperature-sensitive CDC2 gene product. Cell 63:313-324.). Cell proliferation was blocked at G2 phase by incubation at 39.4° C. for 17 h. The synchronized cells were then released by re-incubating at 32.0° C. and treated immediately with 0-10 μM SR-7, 1 μM nocodazole or 100 EM SC-ααδ9, respectively, to probe for G2/M arrest. […] The harvested cells were stained with a solution containing 50 μg/ml propidium iodide and 250 μg/ml RNase A. Flow cytometry analysis was conducted with a Becton Dickinson FACS Star (Franklin Lakes, N.J.). […] This G2/M retention at 4C is probably due to the extended cell cycle blockage at 39.4° C. (Osada H, Cui CB, Onose R and Hanaoka F (1997) Screening of cell cycle inhibitors from microbial metabolites by a bioassay using a mouse cdc2 mutant cell line, tsFT210. Bioorg Med Chem 5:193-203). […] SC-ααδ9 is an inhibitor of the Cdc25 family of phosphatases that controls cell cycle checkpoints (Rice RL, Rusnak JM, Yokokawa F, Yokokawa S, Messner DJ, Boynton AL, Wipf P and Lazo JS (1997) A targeted library of small molecule, tyrosine and dual specificity phosphatase inhibitors derived from a rational core design and random side chain variation. Biochemistry 36:15965-15974)."}, "[5]": {"test_system": "bovine brain tubulin", "assay": "Inhibition of [3H]colchicine binding", "details": "Mean ± SEM, N = 9", "method": "Using methods described previously (Verdier-Pinard P, Lai J-Y, Yoo H-D, Yu J, Marquez B, Nagle DG, Nambu M, White JD, Falck JR, Gerwick WH, Day BW and Hamel E (1998) Structure-activity analysis of the interaction of curacin A, the potent colchicine site antimitotic agent, with tubulin and effects of analogs on the growth of MCF-7 breast cancer cells. Mol Phannacol 53:62-76.). 5,μM [^3H]colchicine was incubated with either 5% DMSO vehicle or compound (5 or 50 μM) at 37° C. for 15 min with 1 μM tubulin in the presence of 1 M monosodium glutamate, 0.1 M glucose-1-phosphate, 1 mM MgCl2, 1 mM GTP and 0.5 mg/ml bovine serum albumin. The solutions were filtered through two stacks of DEAE-cellulose filters and the radioactivity in the filtrate was determined by liquid scintillation spectrometry. Each series of determinations included positive controls of 5 and 50 μM curacin A. The inventors found no evidence that SR-7 could bind to the colchicine site of tubulin. […] The inventors propose that SR-7 may act at another site such as the previously characterized vinca alkaloid site."}, "[6]": {"test_system": "bovine brain tubulin", "assay": "GTP-induced tubulin assembly (turbidity)", "format": "biochemical", "method": "Tubulin without microtubule-associated proteins was isolated from fresh bovine brains (Hamel E and Lin CM (1984). Separation of active tubulin and microtubule-associated proteins by ultracentrifugation and isolation of a component causing the formation of microtubule bundles. Biochemistry 23:4173-4184). Inhibition of assembly reactions was carried out as described previously (Verdier-Pinard P, Lai J-Y, Yoo H-D, Yu J, Marquez B, Nagle DG, Nambu M, White JD, Falck JR, Gerwick WH, Day BW and Hamel E (1998) Structure-activity analysis of the interaction of curacin A, the potent colchicine site antimitotic agent, with tubulin and effects of analogs on the growth of MCF-7 breast cancer cells. Mol Pharmacol 53:62-76.).\nThe inventors examined the ability of SR-7 to alter tubulin polymerization or depolymerization in vitro. FIG. 28, Panel A. Compounds (predissolved in DMSO) were preincubated with tubulin containing monosodium glutamate at 30 ° C. for 15 min. Samples were cooled to 0 ° C. and GTP was added. Samples were placed in a temperature-controlled multi-cuvette holder of a spectrophotometer held at 0 ° C. Baselines were established and temperature was rapidly raised to 30 ° C. Turbidity development in the cuvettes was measured at 350 nm. FIG. 28, Panel B. Compounds were added to the tubulin plus monosodium glutamate mixture at 0 ° C., placed in the spectrophotometer and temperature was raised to 30 ° C. Addition of 0.4 mM GTP to isolated bovine brain tubulin produced robust polymerization that began to plateau approximately 20 min after microtubule assembly commenced (Panel A)."}, "[7]": {"test_system": "Bcl-2", "assay": "Bcl-2 phosphorylation immunoblot in MCF-7 cells", "format": "cell-based, human", "from_the_text": "Attempts to determine the phosphorylation status of Bcl-2 in tsFT210 cells using two different antibodies were unsuccessful due to the antibodies' inability to detect mouse Bcl-2 or the lack of specificity. Therefore, phosphorylated and non-phosphorylated Bcl-2 was detected in lysates from human MCF-7 cells (American Type Culture Collection, Manassas, Va.) treated with microtubule perturbing agents. Equal amounts of protein were separated by electrophoresis on 15% SDS-PAGE followed by immunoblotting with an antihuman Bcl-2 antibody (sc-509, Santa Cruz Biotechnology). Positive antibody reactions were visualized using peroxidase-conjugated secondary antibodies (Jackson ImmunoResearch, West Grove, Pa.) and an enhanced chemiluminescence detection system (Renaissance, NEN, Boston, Mass.) according to manufacturer's instructions.\nAll known microtubule disrupting compounds cause hyperphosphorylation of the antiapoptotic protein Bcl-2 (Haldar S, Jena N and Croce CM (1995) Inactivation of bcl-2 by phospliorylation. Proc Natl Acad Sci USA 92:4507-4511 and Basu A and Haldar S (1998) Microtubule-damaging drugs trigger bcl2 phosphorylation-requirement of phosphorylation on both serine-70 and serine-87 residues of bcl2 protein. Intl J Oncol 13:659-664). Therefore, the phosphorylation status of Bcl-2 in cells treated with various compounds including SR-7 was examined and the results are illustrated in FIG. 29. Proteins from lysates of MCF-7 cells treated with 0.5 μM paclitaxel, 1 μM nocodozole, 1,μM vincristine and, 3 or 10 μM SR-7 were separated by electrophoresis on 15% SDS-PAGE followed by immunoblotting with an antibody to Bcl-2. The phosphorylated form of Bcl-2 (P) appeared as the upper bands and the underphosphorylated form (U) was the lower band."}},
  "data": [
    {"smiles": "O=C1c2c(O)ccc(O)c2C2(Oc3cccc4cccc(c34)O2)[C@@H]2O[C@H]12", "note": "[Palmarumycin C3]", "values": [
      {"measurement": "antifungal activity", "setting": "[1]", "value": "high antifungal activity"}
    ]},
    {"smiles": "O=C1C=CC(=O)[C@@]23O[C@@]12C1(Oc2cccc4cccc(c24)O1)[C@@H]1O[C@@H]1[C@@H]3O", "note": "[Palmarumycin C10]", "values": [
      {"measurement": "antifungal activity", "setting": "[1]", "value": "high antifungal activity"}
    ]},
    {"smiles": "Oc1ccc(O)c2c1[C@H](O)[C@@H]1O[C@@H]1C21Oc2cccc3cccc(c23)O1", "note": "[Palmarumycin C12]", "values": [
      {"measurement": "antifungal activity", "setting": "[1]", "value": "high antifungal activity"}
    ]},
    {"smiles": "O=C1CC[C@@H](O)[C@@H]2C1=C(O)C=CC21Oc2cccc3cccc(c23)O1", "note": "[Palmarumycin CP4]", "values": [
      {"measurement": "antifungal activity", "setting": "[1]", "value": "high antifungal activity"}
    ]},
    {"smiles": "CCCCCCCCCC(=O)NC(CCC(=O)N(CCNC(=O)c1nc(-c2ccccc2)oc1-c1ccccc1)Cc1ccccc1)C(=O)O", "note": "(stereo not drawn) [SC-ααδ9, 4-(benzyl-(2-[ (2,5-diphenyl-oxazole-4-carbonyl)-amino]-ethyl)-carbamoyl)-2-decanoylamino butyric acid, reference compound]", "values": [
      {"measurement": "Cdk1 phosphorylation status", "setting": "[2]; 100 IM, lane 8", "value": "yielded a hyperphosphorylated Cdk1"},
      {"measurement": "G1 transition", "setting": "[3]", "value": "caused a prominent G1 block"},
      {"measurement": "G2/M cell cycle transition", "setting": "[4]; 100 μM, Panel I", "value": "G2/M inhibition"}
    ]},
    {"smiles": "C=CC[C@@H](CC/C(C)=C/C=C/CC/C=C\\[C@@H]1CSC([C@@H]2C[C@@H]2C)=N1)OC", "note": "[curacin A]", "values": [
      {"measurement": "Percent inhibition of [3H]colchicine binding", "setting": "[5]; 5 μM compound, 5 µM", "value": "~90", "unit": "%"},
      {"measurement": "Percent inhibition of [3H]colchicine binding", "setting": "[5]; 5 μM compound, listed as Curacin A, 5 µM", "value": "89.8 ± 0.6", "unit": "%"},
      {"measurement": "Percent inhibition of [3H]colchicine binding", "setting": "[5]; 50 μM compound", "value": "97.3 ± 3.1", "unit": "%"},
      {"measurement": "inhibition of GTP-induced tubulin assembly", "setting": "[6]; 1 μM", "value": 50, "unit": "%"},
      {"measurement": "inhibition of GTP-induced tubulin assembly", "setting": "[6]; 5 μM", "value": "completely inhibited GTP-induced tubulin assembly"}
    ]},
    {"smiles": "COC(=O)Nc1nc2cc(C(=O)c3cccs3)ccc2[nH]1", "note": "[nocodazole]", "values": [
      {"measurement": "Bcl-2 phosphorylation", "setting": "[7]; 1 μM nocodozole", "value": "caused prominent phosphorylation of Bcl-2"},
      {"measurement": "Cdk1 phosphorylation status", "setting": "[2]; 1 μM", "value": "no hyperphosphorylation of Cdk1 was seen"},
      {"measurement": "G2/M cell cycle transition", "setting": "[4]; 1 μM", "value": "blocked cell passage through G2/M"}
    ]},
    {"smiles": "CC(=O)O[C@H]1C(=O)[C@@]2(C)[C@H]([C@H](OC(=O)c3ccccc3)[C@]3(O)C[C@H](OC(=O)[C@H](O)[C@@H](NC(=O)c4ccccc4)c4ccccc4)C(C)=C1C3(C)C)[C@]1(OC(C)=O)CO[C@@H]1C[C@@H]2O", "note": "[paclitaxel]", "values": [
      {"measurement": "Bcl-2 phosphorylation", "setting": "[7]; 0.5 μM", "value": "caused prominent phosphorylation of Bcl-2"}
    ]},
    {"smiles": "CC[C@]1(O)C[C@H]2CN(CCc3c([nH]c4ccccc34)[C@@](C(=O)OC)(c3cc4c(cc3OC)N(C=O)[C@H]3[C@@](O)(C(=O)OC)[C@H](OC(C)=O)[C@]5(CC)C=CCN6CC[C@]43[C@@H]65)C2)C1", "note": "[vincristine]", "values": [
      {"measurement": "Bcl-2 phosphorylation", "setting": "[7]; 1 μM vincristine", "value": "caused prominent phosphorylation of Bcl-2"}
    ]}
  ]
}
